Consider 87 compounds from paper PMC12040169 (PLOS Biology, 2025).

One series in a line: in vitro. To be noted: human, hela cells, % viability.
Broadly, the viability is a read-out of living cells in per cent, often relative to untreated cells. As for `COC(=O)Nc1ccccc1N1CCN(CCCCN2CCN(c3ccccc3)C2=O)CC1` [CBK024372C], the viability at 28.5 h, 10 µM was determined as 91.8%.
On the same count and under the same terms, the result for `Cc1cc(NS(=O)(=O)c2cccc(Cl)c2C)n[nH]1` [CBK024382] reads 91.2%; that for `Cc1cc(=O)[nH]c(N/N=C/c2ccc(Cl)cc2Cl)n1` [CBK024387], 95.8%; that for `NCc1ccc(-c2nc3ccccc3[nH]2)nc1` [CBK024396C], 87.7%.
Same read-out and setting: as for `CC(=O)N1CCc2c(c3cccc(Br)c3n2Cc2ccccc2)C1` [CBK024402], the figure is 93.9%.
Still for that read-out and setting: as for `Cc1ccc(S(N)(=O)=O)cc1NC(=O)Cc1ccccc1` [CBK024413], the figure is 86.7%.
On to `O=C(NCc1ccccc1OC1CCNC1)C1CCCO1` (stereo not drawn) [CBK024503T], for which the viability at 28.5 h, 10 µM was 96.9%.
Take `COCCC(=O)NCc1ccccc1OC1CCNC1` (stereo not drawn) [CBK024504T]: the viability at 28.5 h, 10 µM worked out at 136%.
In the case of `CS(=O)(=O)c1ccc(C(=O)N(Cc2ccccc2)c2ccc(S(=O)(=O)N3CCOC3=O)cc2)cc1` [CBK024590], the viability at 28.5 h, 10 µM was determined as 110%.
Same read-out and setting: the result for `O=[N+]([O-])c1cc(S(=O)(=O)n2ccc3ccccc32)ccc1N1CCNCC1` [CBK024593C] reads 91.2%.
On the same count and under the same terms, the result for `Nc1ncnc2c1ncn2C1OC(CO)C(O)C1O` (stereo not drawn) [CBK024679] reads 92.6%.
The same measure, in the same setting: as for `Nc1ccn(C2OC(CO)C(O)C2O)c(=O)n1` (stereo not drawn) [CBK024684], the figure is 108%.
Consider `NC(=O)c1cccc(Cn2c3c(c4cccc(C(=O)O)c42)CCCCC3)c1` [CBK024834], for which the viability at 28.5 h, 10 µM is 98.6%.
Still for that read-out and setting: as for `COc1ccccc1C(=O)N1CCN(C(=O)CN2CCCC2)CC1` [CBK024836], the figure is 88.1%.
Still for that read-out and setting: as for `Cc1ccc(C(=O)N2CCN(C(=O)CN3CCN(C)CC3)C2)cc1` [CBK024841C], the figure is 76.4%.
On the same count and under the same terms, the result for `Cc1nc(Nc2ccc(Cl)cc2)nc(OC2CCNCC2)n1` [CBK024848] reads 90.5%; that for `Cc1ccc(S(N)(=O)=O)cc1N` [CBK024851], 109%; that for `CN1CCC2CN(CCCC(c3ccc(F)cc3)c3ccc(F)cc3)CCN2C1=O` (stereo not drawn) [CBK024865C], 89.9%.
`CCCCN1CCC2CN(CCCC(c3ccc(F)cc3)c3ccc(F)cc3)CCN2C1=O` (stereo not drawn) [CBK024880C]: the viability at 28.5 h, 10 µM turned out to be 99.5%.
As for `CCN(C)C(=O)N1CCN(CCCC(c2ccc(F)cc2)c2ccc(F)cc2)CC1` [CBK024910C], the viability at 28.5 h, 10 µM came to 90.6%.
The same measure, in the same setting: as for `CCNC(=O)N1CCN(CCOC(c2ccc(F)cc2)c2ccc(F)cc2)CC1` [CBK024943C], the figure is 95.6%; as for `CCN1CCC2CN(CCCC(c3ccc(F)cc3)c3ccc(F)cc3)CCN2C1=O` (stereo not drawn) [CBK024996], 92.7%; as for `CCOC(=O)N1CCN(CCCCc2ccc(F)cc2)CC1` [CBK025002C], 105%.
Same read-out and setting: the result for `CCC(=O)N1CCN(CCCC(=O)c2ccc(F)cc2)CC1` [CBK025017C] reads 108%; that for `CC1CN(C(=O)c2ccccc2)CC(C)N1CCCCc1ccc(F)cc1` (stereo not drawn) [CBK025019C], 97.9%; that for `CCN(CC)C(=O)N1CCN(CCCC(=O)c2ccc(F)cc2)CC1` [CBK025042C], 85.4%.
Still for that read-out and setting: as for `OC1(CCCN2CCOCC2)C2CCCC1CN(Cc1ccccc1)C2` (stereo not drawn) [CBK025076C], the figure is 115%.
Consider `O=C(NC1CC1)N1CCN(CCCOc2ccc(F)cc2)CC1` [CBK025077C], for which the viability at 28.5 h, 10 µM worked out at 111%.
Still for that read-out and setting: the result for `Cc1cccc(N2CCN(CCCC(c3ccc(F)cc3)c3ccc(F)cc3)CC2)n1` [CBK025113C] reads 93.9%; that for `Fc1ccc(N(CCCN2CCN(c3ncccn3)CC2)c2ccc(F)cc2)cc1` [CBK025127C], 98.8%; that for `Cc1ccc(C(=O)C2(O)CCN(CCCC(c3ccc(F)cc3)c3ccc(F)cc3)CC2)cc1` [CBK025221C], 90.6%.
Same read-out and setting: as for `CCC(=O)OC1(C(=O)c2ccc(F)cc2)CCN(CCCC(c2ccc(F)cc2)c2ccc(F)cc2)CC1` [CBK025227C], the figure is 84.3%; as for `C#CC1(OC(=O)CC)CCN(CCCC(=O)c2ccc(F)cc2)CC1` [CBK025277C], 108%.
Consider `CNC(=O)c1cccnc1N1CCN(CCCC(c2ccc(F)cc2)c2ccc(F)cc2)CC1` [CBK025309C], for which the viability at 28.5 h, 10 µM turned out to be 95%.
The same measure, in the same setting: the result for `NC(=O)c1cccnc1N1CCNCC1` [CBK025310C] reads 85.8%; that for `CC(=O)Nc1cc(C)c(C)cc1NC(C)=O` [CBK025366], 97.5%; that for `CNc1nc(C(C)(C)C)cs1` [CBK025373], 88.2%.
The same measure, in the same setting: the result for `Cc1[nH]nc(C(F)(F)F)c1Cl` [CBK025387] reads 113%; that for `c1ccc2[nH]c(SCCCCCSc3nc4ccccc4[nH]3)nc2c1` [CBK025418], 101%.
Same read-out and setting: the result for `Nc1nnc(-c2ccc(Cl)cc2)[nH]1` [CBK025436] reads 118%; that for `c1ccc2oc(SCCCCSc3nc4ccccc4o3)nc2c1` [CBK025465], 97.7%; that for `COc1ccc([C@@]23CC[C@@H](NC(=S)NC(C)=O)C[C@@H]2N(Cc2ccccc2)CC3)cc1OC` [CBK025503T], 90.2%.
Regarding `CCCNCC(=O)N1CCN(C(=O)c2ccc(C)cc2)CC1` [CBK025546], the viability at 28.5 h, 10 µM was determined as 103%.
The same measure, in the same setting: as for `CC1(C)CC(CN)(c2ccccc2)CCO1` (stereo not drawn) [CBK025559C], the figure is 94.9%; as for `COc1ccc(C(=O)Nc2nnc[nH]2)cc1` [CBK025569], 90.8%.
Consider `CC(C)(C)NCC(O)COc1ccc(Cl)cc1Cl` (stereo not drawn) [CBK025597C], for which the viability at 28.5 h, 10 µM was found to be 101%.
Still for that read-out and setting: the result for `c1ccc2c(CSc3ncn[nH]3)cccc2c1` [CBK025610] reads 114%; that for `CN1CCN(c2snnc2CO)CC1` [CBK025626], 99.5%.
On to `Cc1nc2[nH]c(=O)nc(N)c2nc1C` [CBK025658], for which the viability at 28.5 h, 10 µM amounted to 83.3%.
Take `C/C(=N\NC(=O)c1nonc1N)c1ccc(Cl)cc1` [CBK025664]: the viability at 28.5 h, 10 µM is 107%.
As to `COc1nc2nc(N)nc(N)c2nc1C` [CBK025669], the viability at 28.5 h, 10 µM amounted to 90.1%.
On the same count and under the same terms, the result for `Cc1ccc(N2C(=O)CSC2c2ccc(Cl)cc2Cl)cc1` (stereo not drawn) [CBK025673] reads 105%; that for `CCSc1nnc2c(n1)OC(C)Nc1ccccc1-2` (stereo not drawn) [CBK025684], 102%.
Still for that read-out and setting: as for `FC(F)c1cc(-c2ccccc2)n2ncnc2n1` [CBK025714], the figure is 87.3%; as for `CCOC(=O)C(NC(=O)CC)(Nc1cc(C)on1)C(F)(F)F` (stereo not drawn) [CBK025721], 117%; as for `CCOC(=O)N1C(=O)c2ccccc2NC1(C(F)(F)F)C(F)(F)F` [CBK025725], 102%.
Still for that read-out and setting: as for `Cc1ccc(C(=O)n2c(=S)nc3ccccn32)cc1` [CBK025729], the figure is 91.9%; as for `Nc1ncn(Cc2ccccc2)c2nc(SCc3ccccc3)nc1-2` [CBK025744], 106%.
On to `CC1CCC/C(=N\NC(=O)C2C3CCCCC32)C1` (stereo not drawn) [CBK025750], for which the viability at 28.5 h, 10 µM was 116%.
Same read-out and setting: the result for `COc1ccc(/C=N/Nc2nc(OC)nc(N3CCOCC3)n2)cc1` [CBK025751] reads 91.6%; that for `Cc1cc(C)n2c(SCc3ccccc3)nnc2n1` [CBK025780], 82%.
The same measure, in the same setting: as for `COc1ccc(Cl)cc1NS(=O)(=O)N(C)C` [CBK025794], the figure is 90.6%; as for `Cc1cc(C)n(CCOc2nonc2N)n1` [CBK025818], 117%; as for `COC(=O)C#CCNc1cc(Cl)ccc1Cl` [CBK025852], 57.6%.
The same measure, in the same setting: the result for `CC(CN(C)C)C(=O)c1ccsc1` (stereo not drawn) [CBK025906] reads 93%; that for `CN(C)c1nc(Cl)nc(N(C)C#N)n1` [CBK025922], 87.7%; that for `Clc1cc(Cl)c2[nH]c3c(c2c1)CCc1nonc1-3` [CBK025929], 102%.
Turning to `Cc1cc(Sc2nc[nH]n2)c2c(Cl)ccc(Cl)c2n1` [CBK025959], the viability at 28.5 h, 10 µM amounted to 109%.
Same read-out and setting: the result for `CSc1nnc2c(n1)[nH]c1ccccc12` [CBK025967] reads 96.6%; that for `Cc1cc(C)c2c(N)nc(N)nc2n1` [CBK025968], 105%; that for `Fc1ccc2c(-c3ccccc3)noc2c1` [CBK025975], 86.8%.
Consider `Nc1ncc(CCCN2CCOCC2)c(N)n1` [CBK025981], for which the viability at 28.5 h, 10 µM turned out to be 125%.
The same measure, in the same setting: as for `CN1C2CCC1CC(OC(=O)c1cccnc1)C2` (stereo not drawn) [CBK026000], the figure is 100%; as for `CCn1c(C)nn(-c2nc3c(Cl)cccc3s2)c1=O` [CBK026010], 100%.
Same read-out and setting: as for `Cc1ccc(Nc2nc(O)ns2)cc1` [CBK026011], the figure is 81%; as for `Oc1nsnc1-c1ccccc1` [CBK026014], 95%; as for `O=C1CSC2(C(=O)Nc3ccccc32)N1c1ccc([N+](=O)[O-])cc1` (stereo not drawn) [CBK026035], 93.5%.
Still for that read-out and setting: the result for `O=C(Nc1nc2ccc(Br)cc2s1)C1CC1` [CBK026046] reads 108%; that for `O=C(Cn1cnnn1)N1CCN(Cc2ccccc2)CC1` [CBK026053], 85.5%.
For the compound `CS(=O)(=O)c1nnn(CC#N)n1` [CBK026075], the viability at 28.5 h, 10 µM is 90%.
Still for that read-out and setting: the result for `COc1cccc2c(O)cnnc12` [CBK026139] reads 87.2%; that for `COc1ccc(-c2nc3ccccc3s2)cc1O` [CBK026156], 91.6%.
The same measure, in the same setting: as for `Cc1nnc(SCCOc2ccc(Cl)c(C)c2)s1` [CBK026160], the figure is 89.9%; as for `NC(=O)c1nnc2ccc(Cl)cc2c1N` [CBK026161], 89.9%; as for `NC(=O)CSc1nnc(-c2ccncc2)[nH]1` [CBK026179], 107%.
The same measure, in the same setting: the result for `COc1cc2nnnn2c(-c2ccccc2)n1` [CBK026189] reads 102%.

Still in this series, the particulars now being: human, hela cells, % viability, bulk resorufin, single well.
`NC(=O)C[S+]([O-])C(c1ccccc1)c1ccccc1` (stereo not drawn) [CBK026184]: the viability at 28.5 h, 10 µM worked out at 102%.
